# Assay results from publication PMC7523345 (Investigational new drugs, 2018).
# “Also recorded” adds a separate entry of the source.
# Assay: Phase I dose escalation study: safety, tolerability, DLT and MTD
# Assay type: in vivo
smiles,measurement,setting,value
Cc1cccc2c1NC(=O)[C@@H](NC(=O)[C@H](CCC(F)(F)F)[C@H](CCC(F)(F)F)C(N)=O)N=C2c1cccc(F)c1 [BMS-986115],"Leucocytosis (drug related AE, Grade 3 and 4)",Arm A QD 2.0 mg (N = 7),0 n (%)
same,"Mouth ulceration (drug related AE, all grades)",Arm A QD 2.0 mg (N = 7),1 (14) n (%)
same,"Nausea (drug related AE, Grade 3 and 4)",Arm A QD 2.0 mg (N = 7),1 (14) n (%)
same,"Nausea (drug related AE, all grades)",Arm A QD 2.0 mg (N = 7),5 (71) n (%)
same,"Pruritus (drug related AE, Grade 3 and 4)",Arm A QD 2.0 mg (N = 7),1 (14) n (%)
same,"Pruritus (drug related AE, all grades)",Arm A QD 2.0 mg (N = 7),3 (43) n (%)
same,"Pulmonary embolism (drug related AE, Grade 3 and 4)",Arm A QD 2.0 mg (N = 7),0 n (%)
same,"Rash (drug related AE, all grades)",Arm A QD 2.0 mg (N = 7),1 (14) n (%)
same,"Rash maculopapular (drug related AE, all grades)",Arm A QD 2.0 mg (N = 7),2 (29) n (%)
same,"Sinusitis (drug related AE, all grades)",Arm A QD 2.0 mg (N = 7),0 n (%)
same,"Urticaria (drug related AE, Grade 3 and 4)",Arm A QD 2.0 mg (N = 7),1 (14) n (%)
same,"Vision blurred (drug related AE, all grades)",Arm A QD 2.0 mg (N = 7),0 n (%)
same,"Vomiting (drug related AE, Grade 3 and 4)",Arm A QD 2.0 mg (N = 7),1 (14) n (%)
same,"Vomiting (drug related AE, all grades)",Arm A QD 2.0 mg (N = 7),5 (71) n (%)
same,"Weight decreased (drug related AE, all grades)",Arm A QD 2.0 mg (N = 7),0 n (%)
same,No. of patients with DLTs,"Arm A QD 2.0 mg, 5 DLT evaluable patients",3
same,"Abdominal distension (drug related AE, all grades)",Arm A QD Total (N = 24),1 (4) n (%)
same,"Abdominal pain (drug related AE, Grade 3 and 4)",Arm A QD Total (N = 24),1 (4) n (%)
same,"Abdominal pain (drug related AE, all grades)",Arm A QD Total (N = 24),2 (8) n (%)
same,"Blood creatinine increased (drug related AE, all grades)",Arm A QD Total (N = 24),1 (4) n (%)
same,"Colitis (drug related AE, Grade 3 and 4)",Arm A QD Total (N = 24),1 (4) n (%)
same,"Cough (drug related AE, Grade 3 and 4)",Arm A QD Total (N = 24),1 (4) n (%)
same,"Cough (drug related AE, all grades)",Arm A QD Total (N = 24),3 (13) n (%)
same,"Decreased Appetite (drug related AE, Grade 3 and 4)",Arm A QD Total (N = 24),0 n (%)
same,"Decreased Appetite (drug related AE, all grades)",Arm A QD Total (N = 24),8 (33) n (%)
same,"Dehydration (drug related AE, Grade 3 and 4)",Arm A QD Total (N = 24),0 n (%)
same,"Dehydration (drug related AE, all grades)",Arm A QD Total (N = 24),3 (13) n (%)
same,"Dermatitis acneiform (drug related AE, all grades)",Arm A QD Total (N = 24),4 (17) n (%)
same,"Diarrhoea (drug related AE, Grade 3 and 4)",Arm A QD Total (N = 24),4 (17) n (%)
same,"Diarrhoea (drug related AE, all grades)",Arm A QD Total (N = 24),18 (75) n (%)
same,"Dry mouth (drug related AE, all grades)",Arm A QD Total (N = 24),2 (8) n (%)
same,"Dry skin (drug related AE, all grades)",Arm A QD Total (N = 24),3 (13) n (%)
same,"Dysgeusia (drug related AE, all grades)",Arm A QD Total (N = 24),3 (13) n (%)
same,"Dyspepsia (drug related AE, all grades)",Arm A QD Total (N = 24),2 (8) n (%)
same,"Dysphonia (drug related AE, all grades)",Arm A QD Total (N = 24),4 (17) n (%)
same,"Fatigue (drug related AE, Grade 3 and 4)",Arm A QD Total (N = 24),1 (4) n (%)
same,"Fatigue (drug related AE, all grades)",Arm A QD Total (N = 24),10 (42) n (%)
same,"Flatulence (drug related AE, all grades)",Arm A QD Total (N = 24),0 n (%)
same,"Hypocalcaemia (drug related AE, Grade 3 and 4)",Arm A QD Total (N = 24),0 n (%)
same,"Hypocalcaemia (drug related AE, all grades)",Arm A QD Total (N = 24),1 (4) n (%)
same,"Hypokalaemia (drug related AE, Grade 3 and 4)",Arm A QD Total (N = 24),4 (17) n (%)
same,"Hypokalaemia (drug related AE, all grades)",Arm A QD Total (N = 24),7 (29) n (%)
same,"Hyponatraemia (drug related AE, Grade 3 and 4)",Arm A QD Total (N = 24),1 (4) n (%)
same,"Hyponatraemia (drug related AE, all grades)",Arm A QD Total (N = 24),1 (4) n (%)
same,"Hypophosphataemia (drug related AE, Grade 3 and 4)",Arm A QD Total (N = 24),8 (33) n (%)
same,"Hypophosphataemia (drug related AE, all grades)",Arm A QD Total (N = 24),16 (67) n (%)
same,"Ileus (drug related AE, Grade 3 and 4)",Arm A QD Total (N = 24),1 (4) n (%)
same,"Increased upper airway secretion (drug related AE, all grades)",Arm A QD Total (N = 24),0 n (%)
same,"Laryngeal pain (drug related AE, all grades)",Arm A QD Total (N = 24),2 (8) n (%)
same,"Leucocytosis (drug related AE, Grade 3 and 4)",Arm A QD Total (N = 24),0 n (%)
same,"Mouth ulceration (drug related AE, all grades)",Arm A QD Total (N = 24),2 (8) n (%)
same,"Nausea (drug related AE, Grade 3 and 4)",Arm A QD Total (N = 24),3 (13) n (%)
same,"Nausea (drug related AE, all grades)",Arm A QD Total (N = 24),15 (63) n (%)
same,"Pruritus (drug related AE, Grade 3 and 4)",Arm A QD Total (N = 24),1 (4) n (%)
same,"Pruritus (drug related AE, all grades)",Arm A QD Total (N = 24),6 (25) n (%)
same,"Pulmonary embolism (drug related AE, Grade 3 and 4)",Arm A QD Total (N = 24),1 (4) n (%)
same,"Rash (drug related AE, all grades)",Arm A QD Total (N = 24),8 (33) n (%)
same,"Rash maculopapular (drug related AE, all grades)",Arm A QD Total (N = 24),2 (8) n (%)
same,"Sinusitis (drug related AE, all grades)",Arm A QD Total (N = 24),2 (8) n (%)
same,"Urticaria (drug related AE, Grade 3 and 4)",Arm A QD Total (N = 24),1 (4) n (%)
same,"Vision blurred (drug related AE, all grades)",Arm A QD Total (N = 24),1 (4) n (%)
same,"Vomiting (drug related AE, Grade 3 and 4)",Arm A QD Total (N = 24),1 (4) n (%)
same,"Vomiting (drug related AE, all grades)",Arm A QD Total (N = 24),12 (50) n (%)
same,"Weight decreased (drug related AE, all grades)",Arm A QD Total (N = 24),2 (8) n (%)
same,Patients with dose limiting toxicities,"Arm A QD, all dose levels",Four
same,"Treatment-related SAEs, description","Arm A QD, one line per subject",Gr 3 nausea with Gr 3 fatigue and Gr 4 hypophosphataemia; also recorded: Gr 3 ileus
same,Maximum Tolerated Dose (MTD),"Arm A, once daily (QD) oral dosing",1.5 mg
same,Subjects with treatment-related SAEs,Arm B BIW,2 subjects
same,"Abdominal distension (drug related AE, all grades)",Arm B BIW 2 mg (N = 2),0 n (%)
same,"Abdominal pain (drug related AE, Grade 3 and 4)",Arm B BIW 2 mg (N = 2),0 n (%)
